The values that follow come from US8445478B2 (Sanofi, priority 2007, dated 2013).

One data set deals with human CB1 receptor (Homo sapiens, UniProt P21554). In words: cell-based. On the procedure:
The compounds according to the invention were the subject of pharmacological tests for determining the activity with respect to human cannabinoid CB1-type receptors. The efficacy of the compounds of formula (I) was determined in a functional test which measures cannabinoid CB1 receptor activity (intracellular cyclic AMP test). The test for detecting intracellular cyclic AMP in U373MG cells naturally expressing the human CB1 receptor was carried out as described in the reference: Bouaboula et al., 1995, J. Biol. Chem. 270:13973-13980. The HTRF cAMP Dynamic Kit from CisBio was used to quantify the intracellular cyclic AMP.

For data set [1], the target named is T1, cannabinoid CB1-type receptor (Mus musculus, UniProt P47746).
T1 construct: male CD1 mice received the test product per os; from tissue; host or cells: whole animal, male CD1 mice
In words: inhibition of gastrointestinal transit induced by racemic CP55,940 in mice. The conditions noted are these: 1 mg/kg per os; 3 hours after administration of the product; male CD1 mice; CP55,940 0.15 mg/kg ip. It is filed as in vivo. On the procedure: After a further 30 minutes, the animals received a charcoal bolus po. Thirty minutes later, the animals are sacrificed by euthanasia (CO2/O2) and the intestine is dissected. The progression of the charcoal bolus in the intestine is expressed as percentage of the total length of the intestine.

In the next data set the target is cannabinoid CB receptor (Mus musculus, UniProt P47746). In words: hypothermia induced by cannabinoid CB receptor agonist CP55,940 in mice. Conditions: 3 mg/kg po; male CD1 mice; CP55,940 1.25 mg/kg i.p.; rectal temperature at 90 minutes.

Structures are written as SMILES.

Chain of human CB1 receptor (P21554 whole entry): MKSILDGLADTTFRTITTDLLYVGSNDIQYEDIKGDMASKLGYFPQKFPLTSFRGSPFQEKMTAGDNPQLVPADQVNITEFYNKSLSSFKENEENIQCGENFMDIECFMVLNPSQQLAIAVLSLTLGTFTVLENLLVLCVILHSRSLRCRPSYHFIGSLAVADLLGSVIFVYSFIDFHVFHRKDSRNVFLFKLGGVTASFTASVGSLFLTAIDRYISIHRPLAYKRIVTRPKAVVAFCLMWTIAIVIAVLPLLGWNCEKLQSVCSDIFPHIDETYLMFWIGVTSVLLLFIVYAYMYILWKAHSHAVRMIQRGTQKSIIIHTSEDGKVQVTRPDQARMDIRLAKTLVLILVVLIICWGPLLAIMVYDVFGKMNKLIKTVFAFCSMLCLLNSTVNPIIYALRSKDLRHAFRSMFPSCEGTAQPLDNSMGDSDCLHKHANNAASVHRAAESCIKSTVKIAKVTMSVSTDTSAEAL
Chain of cannabinoid CB receptor (P47746 whole entry): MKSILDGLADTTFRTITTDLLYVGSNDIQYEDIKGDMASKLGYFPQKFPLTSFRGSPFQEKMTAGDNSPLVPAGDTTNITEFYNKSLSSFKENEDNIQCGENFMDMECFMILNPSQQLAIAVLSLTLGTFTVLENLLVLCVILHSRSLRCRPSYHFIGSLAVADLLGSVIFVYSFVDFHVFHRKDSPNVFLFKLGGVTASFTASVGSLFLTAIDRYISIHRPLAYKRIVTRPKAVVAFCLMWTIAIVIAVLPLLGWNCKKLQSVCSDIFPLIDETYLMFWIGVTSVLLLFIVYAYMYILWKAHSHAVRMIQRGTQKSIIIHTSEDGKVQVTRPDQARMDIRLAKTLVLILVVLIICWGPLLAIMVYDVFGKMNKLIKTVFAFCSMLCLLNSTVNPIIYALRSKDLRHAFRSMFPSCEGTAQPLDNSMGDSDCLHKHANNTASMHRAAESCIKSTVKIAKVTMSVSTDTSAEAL
T1 sequence (P47746 whole entry): as above
Method for cannabinoid CB receptor: At time 0 min, the rectal temperature of male CD1 mice is measured before injection of the test product. At 30 minutes, a further measurement of the rectal temperature of the mice is taken and the racemic CP55,940 agonist ORS, 3RS, 4RS-3-[hydroxy-2-(1,1-dimethylheptyl)phenyl]-4-(3-hydroxypropyl)cyclohexan-1-ol) (1.25 mg/kg i.p. in 10% cremophor) is administered. At 90 minutes, the rectal temperature is again taken. The results are expressed as % relative to the control batch injected with the CP55,940 (minimum temperature) and to the carrier batch without CP55,940 treatment (maximum temperature).

`CNC(=O)CNC(=O)c1cccc(NS(=O)(=O)CC2CN(C(c3ccc(Cl)cc3)c3ccc(Cl)cc3)C2)c1` [compound 15, 3-({1-[bis(4-chlorophenyl)methyl]azetidin-3-yl}methanesulphonylamino)-N-(methylcarbamoylmethyl)benzamide]: the melting point stood at 216 °C. `C[C@@H](NC(=O)c1cc(F)cc(N(C2CN(C(c3ccc(Cl)cc3)c3ccc(Cl)cc3)C2)S(C)(=O)=O)c1)C(N)=O`: the IC50 at human CB1 receptor is 284 nM. In turn, `C[C@H](NC(=O)c1cccc(NS(=O)(=O)CC2CN(C(c3ccc(Cl)cc3)c3ccc(Cl)cc3)C2)c1)C(N)=O` [Compound No. 1, 3-({1-[bis(4-chlorophenyl)methyl]azetidin-3-yl}methanesulphonylamino)-N—((S)-1-carbamoylethyl)benzamide] returned a melting point of 229 °C. `C[C@H](NC(=O)c1cccc(N(C2CN(C(c3ccc(Cl)cc3)c3ccc(Cl)cc3)C2)S(C)(=O)=O)c1)C(N)=O`: the “percentages of inhibition (gastrointestinal transit model)” value in data set [1] was 39.2%. For the same compound, on cannabinoid CB receptor, the “percentages of inhibition of the decrease in temperature induced by the agonist” value worked out at 5%. Besides, at human CB1 receptor, half-maximal inhibition (IC50) was put at 43 nM.

Take `C[C@H](NC(=O)c1cc(F)cc(N(C2CN(C(c3ccc(Br)cc3)c3ccc(Br)cc3)C2)S(C)(=O)=O)c1)C(N)=O` [compound 70, 3-({1-[bis(4-bromophenyl)methyl]azetidin-3-yl}methanesulphonylamino)-N—((S)-1-carbamoylethyl)-5-fluorobenzamide]: 31 nM corresponded to half-maximal inhibition at human CB1 receptor (IC50).

In turn, `CNC(=O)[C@H](C)NC(=O)c1cccc(NS(=O)(=O)CC2CN(C(c3ccc(Cl)cc3)c3ccc(Cl)cc3)C2)c1` [Compound No. 9, 3-({1-[bis(4-chlorophenyl)methyl]azetidin-3-yl}methanesulphonylamino)-N—((S)-1-methylcarbamoylethyl)benzamide] came in with a melting point of 171 to 173 °C. The compound `COc1cc(NS(=O)(=O)CC2CN(C(c3ccc(Cl)cc3)c3ccc(Cl)cc3)C2)cc(C(=O)N[C@@H](C)C(N)=O)c1` (hydrate or solvate) [compound 22, 3-({1-[bis(4-chlorophenyl)methyl]azetidin-3-yl}methanesulphonylamino)-N—((S)-1-carbamoylethyl)-5-methoxybenzamide] had a melting point of 183 to 185 °C. In the case of `C[C@H](NC(=O)c1cc(N(C2CN(C(c3ccc(Cl)cc3)c3ccc(Cl)cc3)C2)S(C)(=O)=O)cc(C(F)(F)F)c1)C(=O)O` [compound 68], the “percentages of inhibition (gastrointestinal transit model)” value in data set [1] worked out at 7%. It took 24 nM to reach half-maximal inhibition against human CB1 receptor (IC50). `C[C@@H](NC(=O)c1cccc(NS(=O)(=O)CC2CN(C(c3ccc(Cl)cc3)c3ccc(Cl)cc3)C2)c1)C(N)=O` [Compound No. 5, 3-({1-[Bis(4-chlorophenyl)methyl]azetidin-3-yl}methanesulphonylamino)-N—((R)-1-carbamoylethyl)benzamide] registered a melting point of 235 °C. Regarding `CC(C)[C@H](NC(=O)c1cc(N(C2CN(C(c3ccc(Cl)cc3)c3ccc(Cl)cc3)C2)S(C)(=O)=O)cc(C(F)(F)F)c1)C(N)=O` [compound 56], at human CB1 receptor, the IC50 worked out at 41 nM. This counts as double-digit nanomolar. For the compound `NC(=O)CCNC(=O)c1cccc(NS(=O)(=O)CC2CN(C(c3ccc(Cl)cc3)c3ccc(Cl)cc3)C2)c1` [Compound No. 7, 3-({1-[bis(4-chlorophenyl)methyl]azetidin-3-yl}methanesulphonylamino)-N-(2-carbamoylethyl)benzamide], the melting point lay in the range of 190 to 192 °C. Same read-out and setting: for `NC(=O)CNC(=O)c1cccc(NS(=O)(=O)CC2CN(C(c3ccc(Cl)cc3)c3ccc(Cl)cc3)C2)c1` [compound 16, 3-({1-[bis(4-chlorophenyl)methyl]azetidin-3-yl}methanesulphonylamino)-N-(carbamoylmethyl)benzamide] the value was 196 to 198 °C.

`CC[C@H](NC(=O)c1ccc(F)c(N(C2CN(C(c3ccc(Cl)cc3)c3ccc(Cl)cc3)C2)S(C)(=O)=O)c1)C(N)=O` [compound 36]: on human CB1 receptor, half-maximal inhibition (IC50) was put at 952 nM. That is a sub-micromolar value. `CC[C@H](NC(=O)c1cc(F)cc(NS(=O)(=O)CC2CN(C(c3ccc(Cl)cc3)c3ccc(Cl)cc3)C2)c1)C(N)=O` [compound 14, 3-({1-[bis(4-chlorophenyl)methyl]azetidin-3-yl}methanesulphonylamino)-N—((S)-1-carbamoylpropyl)-5-fluorobenzamide]: the melting point is 212 to 214 °C. `Cc1cc(NS(=O)(=O)CC2CN(C(c3ccc(Cl)cc3)c3ccc(Cl)cc3)C2)cc(C(=O)N[C@@H](C)C(N)=O)c1` [compound 38, 3-({1-[bis(4-chlorophenyl)methyl]azetidin-3-yl}methanesulphonylamino)-N—((S)-1-carbamoylethyl)-5-methylbenzamide]: the “percentages of inhibition of the decrease in temperature induced by the agonist” value at cannabinoid CB receptor came to 17%. Regarding `CCOC(=O)[C@H](C)NC(=O)c1cc(F)cc(N(C2CN(C(c3ccc(Cl)cc3)c3ccc(Cl)cc3)C2)S(C)(=O)=O)c1` [compound 79], inhibition at human CB1 receptor was half-maximal at 70 nM (IC50). For `NC(=O)[C@H](CO)NC(=O)c1cc(F)cc(NS(=O)(=O)CC2CN(C(c3ccc(Cl)cc3)c3ccc(Cl)cc3)C2)c1` [compound 13, 3-({1-[bis(4-chlorophenyl)methyl]azetidin-3-yl}methanesulphonylamino)-N—((S)-1-carbamoyl-2-hydroxyethyl)-5-fluorobenzamide], the melting point was 212 to 214 °C. Still for that read-out and setting: for `NC(=O)CCCNC(=O)c1cc(F)cc(NS(=O)(=O)CC2CN(C(c3ccc(Cl)cc3)c3ccc(Cl)cc3)C2)c1` [compound 28, 3-({1-[bis(4-chlorophenyl)methyl]azetidin-3-yl}methanesulphonylamino)-N-(3-carbamoylpropyl)-5-fluorobenzamide] the value was 186 °C. With `CC[C@H](NC(=O)c1cc(NS(=O)(=O)CC2CN(C(c3ccc(Cl)cc3)c3ccc(Cl)cc3)C2)cc(C(F)(F)F)c1)C(N)=O` [compound 55, 3-({1-[bis(4-chlorophenyl)methyl]azetidin-3-yl}methanesulphonylamino)-N—((S)-1-carbamoylpropyl)-5-trifluoromethylbenzamide], the “percentages of inhibition (gastrointestinal transit model)” value in data set [1] is 74%. The “percentages of inhibition of the decrease in temperature induced by the agonist” value at cannabinoid CB receptor was determined as 28%. On to `C[C@H](NC(=O)c1cc(F)cc(N(C2CN(C(c3ccc(Cl)cc3)c3ccc(Cl)cc3)C2)S(C)(=O)=O)c1)C(N)=O`, for which, in data set [1], the “percentages of inhibition (gastrointestinal transit model)” value was determined as 49%. The IC50 against human CB1 receptor was 9 nM.

For `C[C@@H](NC(=O)c1cc(F)cc(NS(=O)(=O)CC2CN(C(c3ccc(Cl)cc3)c3ccc(Cl)cc3)C2)c1)C(N)=O` [Compound No. 4, 3-({1-[bis(4-chlorophenyl)methyl]azetidin-3-yl}methanesulphonylamino)-N—((R)-1-carbamoylethyl)-5-fluorobenzamide], the melting point was 219 to 221 °C. Still for that read-out and setting: for `O=C(NCC(=O)N1CCOCC1)c1cccc(NS(=O)(=O)CC2CN(C(c3ccc(Cl)cc3)c3ccc(Cl)cc3)C2)c1` [Compound No. 8, 3-({1-[bis(4-chlorophenyl)methyl]azetidin-3-yl}methanesulphonylamino)-N-(2-morpholin-4-yl-2-oxoethyl)benzamide] the value was 176 °C. For `CNC(=O)[C@H](C)NC(=O)c1cc(NS(=O)(=O)CC2CN(C(c3ccc(Cl)cc3)c3ccc(Cl)cc3)C2)cc(C(F)(F)F)c1` [compound 57, 3-({1-[bis(4-chlorophenyl)methyl]azetidin-3-yl}methanesulphonylamino)-N—((S)-1-methylcarbamoylethyl)-5-trifluoromethylbenzamide], the “percentages of inhibition (gastrointestinal transit model)” value in data set [1] is listed as 78%. Further, the “percentages of inhibition of the decrease in temperature induced by the agonist” value on cannabinoid CB receptor is given as 21%. In turn, `CC[C@H](NC(=O)c1cccc(NS(=O)(=O)CC2CN(C(c3ccc(Cl)cc3)c3ccc(Cl)cc3)C2)c1)C(N)=O` [compound 10, 3-({1-[bis(4-chlorophenyl)methyl]azetidin-3-yl}methanesulphonylamino)-N—((S)-1-carbamoylpropyl)benzamide] returned a melting point of 220 to 222 °C. Same read-out and setting: for `C[C@H](NC(=O)c1cc(F)cc(NS(=O)(=O)CC2CN(C(c3ccc(Cl)cc3)c3ccc(Cl)cc3)C2)c1)C(N)=O` [Compound No. 3, 3-({1-[Bis(4-chlorophenyl)methyl]azetidin-3-yl}methanesulphonylamino)-N—((S)-1-carbamoylethyl)-5-fluorobenzamide] the value was 228 to 230 °C; for `CNC(=O)[C@H](C)NC(=O)c1cc(F)cc(NS(=O)(=O)CC2CN(C(c3ccc(Cl)cc3)c3ccc(Cl)cc3)C2)c1` [compound 26, 3-({1-[bis(4-chlorophenyl)methyl]azetidin-3-yl}methanesulphonylamino)-5-fluoro-N—((S)-1-methylcarbamoylethyl)benzamide], 150 °C; for `NC(=O)CNC(=O)c1cc(F)cc(NS(=O)(=O)CC2CN(C(c3ccc(Cl)cc3)c3ccc(Cl)cc3)C2)c1` [Compound No. 2, 3-({1-[bis(4-chlorophenyl)methyl]azetidin-3-yl}methanesulphonylamino)-N-carbamoylmethyl-5-fluorobenzamide], 154 to 156 °C.

In general, melting point refers to the temperature, or range, at which the solid turns liquid. By IC50 is commonly meant the midpoint of a concentration-inhibition curve. A low value points to higher potency.
